The record followed here is patent US5721267A, “Chemotherapeutic pyrrolocarbazole derivatives” (Syntex (U.S.A.) Inc., priority 1997, dated 1998).

The assay deals with T1, β1 isozyme of PKC from rat brain (Rattus norvegicus, UniProt P68403).
T1 construct: β1 isozyme of PKC from rat brain; from tissue; host or cells: rat brain
In words: Protein kinase C inhibition assay (32P incorporation from γ-32P ATP into synthetic peptide substrate). It is filed as biochemical. The settings on record: activated by 5×10^-6 M diC8 and 1 μg/mL phosphatidylserine, 50 μM ATP, read-out: IC50 (concentration necessary to achieve 50% inhibition of PKC). Here is the method:
In vitro activity for protein kinase C inhibition, is quantitated by measuring incorporation of […] from γ-^32 P ATP into synthetic peptide substrates.
Protein Kinase C (PKC) inhibitory activity is quantitated by measuring incorporation of ^32 P from γ-^32 P ATP into synthetic peptide substrates. The inhibitory potential is measured using the β1 isozyme of PKC from rat brain and the synthetic peptide substrate ala-lys-arg-arg-arg-leu-ser-ser-leu-arg-ala.
A reaction mixture containing 25 mM Tris-HCl, pH 7.5, 2.5 mM Mg(NO3), 1.0 mM EGTA, 20 μM substrate, 1 μg/mL phosphatidlserine (PS), 5×10 ^-6 M diacylglycerol(di-C8), and 50 μM ATP is spiked with γ-^32 P ATP (>5,000 Ci/mmol) to provide approximately 10^6 CPM per reaction and 0.08 μg/mL PKC in a 50 μl volume per well. The assay is run with or without test compound, added at various concentrations. After five minutes incubation at room temperature, the reaction is stopped by the addition of 0.2V of a 50% TCA solution. A 30 μl sample from each well (control and test compound) is then spotted onto Whatman P-81 ion exchange chromatography paper, and 32-P incorporation is then counted on a Beckman LS 5000 TA liquid scintillation counter. […]
% Inhibition=1.0 -[(sample CPM-basal CPM)/(total CPM-basal CPM)]×100 and the concentration necessary to achieve 50% Inhibition is determined.

T1 sequence (P68403 whole entry): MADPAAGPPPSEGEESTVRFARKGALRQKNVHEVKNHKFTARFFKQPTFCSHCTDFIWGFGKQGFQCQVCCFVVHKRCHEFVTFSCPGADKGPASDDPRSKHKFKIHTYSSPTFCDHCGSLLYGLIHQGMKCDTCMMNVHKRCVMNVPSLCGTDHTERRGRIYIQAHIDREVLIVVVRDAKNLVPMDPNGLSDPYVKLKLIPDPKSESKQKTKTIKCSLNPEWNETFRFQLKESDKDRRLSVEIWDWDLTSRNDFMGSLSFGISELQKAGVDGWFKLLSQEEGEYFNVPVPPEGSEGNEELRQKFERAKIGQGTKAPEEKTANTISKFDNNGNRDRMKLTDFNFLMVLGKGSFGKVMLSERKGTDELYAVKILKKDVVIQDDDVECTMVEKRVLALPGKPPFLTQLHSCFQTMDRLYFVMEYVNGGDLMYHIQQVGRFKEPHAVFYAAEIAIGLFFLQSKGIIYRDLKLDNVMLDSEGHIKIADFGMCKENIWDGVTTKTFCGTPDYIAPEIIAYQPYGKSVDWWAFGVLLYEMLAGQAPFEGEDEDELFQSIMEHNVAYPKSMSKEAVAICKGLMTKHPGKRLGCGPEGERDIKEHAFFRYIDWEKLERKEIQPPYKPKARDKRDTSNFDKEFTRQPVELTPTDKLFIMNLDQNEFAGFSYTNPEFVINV

For `CNCCCn1c2ccccc2c2c3c(c(-c4ccsc4)cc21)C(=O)NC3=O` [1,3-dioxo-6-(3-methylaminopropyl)-1,2,3,6-tetrahydro-4-(thiophen-3-yl)-pyrrolo[3,4-c]carbazole], the IC50 was 0.03 µM.
